Molecular target: T1, FimH (Escherichia coli, UniProt Q1R2J4)
T1 construct: endogenous in cells; host or cells: E. coli UTI89 bacteria
Assay: Hemagglutination inhibition (HAI) assay with UTI89 bacteria and guinea pig red blood cells
Assay type: cell-based
Conditions: concentration reducing bacterial agglutination of guinea pig red blood cells by greater than 90%; UTI89 bacteria
Experimental: “HAI or EC>90” is that concentration of the FimH inhibitor/antagonist which reduces the bacterial agglutination of guinea pig red blood cells by greater than 90%.
HAI Assay The hemagglutination inhibition (HAI) assay was performed with UTI89 bacteria and guinea pig red blood cells, as previously described (S. J. Hultgren, W. R. Schwan, A. J. Schaeffer, J. L. Duncan Infect. Immun. 1986, 54, 613-620). Compounds not listed were not tested.

Row | SMILES | HAI titer EC>90 [µM]
1 | Cc1cc(Oc2cccc(C#N)c2)c([N+](=O)[O-])cc1O[C@H]1O[C@H](CO)[C@@H](O)[C@H](O)[C@@H]1O [Example 1, 3-[4-(α-D-mannopyranosyloxy)-5-methyl-2-nitrophenoxy]benzonitrile] | 0.125
2 | Cc1cc(-n2cc(-c3ccccn3)nn2)ccc1O[C@H]1O[C@H](CO)[C@@H](O)[C@H](O)[C@@H]1O [Example 3, 2-methyl-4-[4-(pyridin-2-yl)-1H-1,2,3-triazol-1-yl]phenyl α-D-mannopyranoside] | 0.062
3 | Cc1cc(-n2cc(-c3cccc(C(=O)O)c3)nn2)ccc1O[C@H]1O[C@H](CO)[C@@H](O)[C@H](O)[C@@H]1O [Example 5, 2-methyl-4-[4-(3-carboxyphenyl)-1H-1,2,3-triazol-1-yl]phenyl α-D-mannopyranoside] | 0.062
4 | Cc1cc(-c2ccnc(Cl)c2)ccc1OC1OC(CO)C(O)C(O)C1O [Example 6a, 4-(2′-chloropyrid-4′-yl)-2-methylphenyl α-D-mannopyranoside] | 0.062
5 | Cc1cc(-c2ccnc(-c3ccnc(Cl)c3)c2)ccc1OC1OC(CO)C(O)C(O)C1O [Example 6b, 4-[2′-(2″-chloropyrid-4″-yl)-pyrid-4′-yl]-2-methylphenyl α-D-mannopyranoside] | 0.062
6 | Cc1cc(-c2cccc(C(=O)N3CCOCC3)c2)ccc1O[C@H]1O[C@H](CO)[C@@H](O)[C@H](O)[C@@H]1O [Example 7, 3-methyl-3′-(morpholin-4-ylcarbonyl)biphenyl-4-yl α-D-mannopyranoside] | 0.25
7 | Cc1cc(-c2cccc(C(=O)N3CCNCC3)c2)ccc1O[C@H]1O[C@H](CO)[C@@H](O)[C@H](O)[C@@H]1O [Example 8, 3-methyl-3′-(piperazin-1-ylcarbonyl)biphenyl-4-yl α-D-mannopyranoside] | 0.25
8 | Cc1cc(-c2cncc(C(=O)NC(C)C)c2)ccc1O[C@H]1O[C@H](CO)[C@@H](O)[C@H](O)[C@@H]1O [Example 9, 5-[4′-(α-D-mannopyranosyloxy)-3′-methylphenyl]-N-isopropyl-3-pyridinecarboxamide] | 0.032
9 | Cc1cc(-c2cccc(C(=O)NCCCCCCNC(=O)CCCCC[N+]3=C(/C=C/C=C/C=C4/c5ccc6ccccc6c5C(C)(C)N4C)C(C)(C)c4ccc5ccccc5c43)c2)ccc1OC1OC(CO)C(O)C(O)C1O.[Cl-] [Example 10, N-(Cyanine5.5)-4′-(α-D-mannopyranosyl)-3′-methyl-[1,1′biphenyl]-3-carboxamide chloride] | 16
10 | COC(=O)c1cncc(-c2ccc(O[C@H]3O[C@H](CO)[C@@H](O)[C@H](O)[C@@H]3O)c(C)c2)c1 [Example 11, 5-[4′-(α-D-mannopyranosyloxy)-3′-methylphenyl]-3-pyridinecarboxylic acid methyl ester] | 0.032
11 | Cc1cc(-c2ccc3[nH]nc(C)c3c2)ccc1O[C@H]1O[C@H](CO)[C@@H](O)[C@H](O)[C@@H]1O [Example 12, 3-Methyl-5-[4′-(α-D-mannopyranosyloxy) 3′-methylphenyl]-1H-indazole] | 0.062
12 | Cc1cc(-c2ccc3[nH]nc(N)c3c2)ccc1O[C@H]1O[C@H](CO)[C@@H](O)[C@H](O)[C@@H]1O [Example 13, 5-[4′-(α-D-mannopyranosyloxy)-3′-methylphenyl]-1H-indazol-3-amine] | 0.125
13 | Cc1cc(-c2cccc3cnccc23)ccc1O[C@H]1O[C@H](CO)[C@@H](O)[C@H](O)[C@@H]1O [Example 15, 5-[4′-(α-D-mannopyranosyloxy)-3′-methylphenyl]-isoquinoline] | 0.062
14 | Cc1cc(-c2cccc3c(=O)[nH]ccc23)ccc1O[C@H]1O[C@H](CO)[C@@H](O)[C@H](O)[C@@H]1O [Example 16, 5-[4′-(α-D-mannopyranosyloxy)-3′-methylphenyl]-1(2H)-isoquinolinone] | 0.125
15 | Cc1cc(-c2cccc3c(N)nccc23)ccc1O[C@H]1O[C@H](CO)[C@@H](O)[C@H](O)[C@@H]1O [Example 17, 5-[4′-(α-D-mannopyranosyloxy)-3′-methylphenyl]-isoquinolin-1-amine] | 0.062
16 | Cc1cc(-c2cccc(-c3nnn[nH]3)c2)ccc1O[C@H]1O[C@H](CO)[C@@H](O)[C@H](O)[C@@H]1O [Example 18, 3-Methyl-3′-(2H-tetrazol-5-yl)[1,1′-biphenyl]-4-yl α-D-mannopyranoside] | 0.125
17 | CNC(=O)c1cc(C(=O)NCCCCCCNC(=O)CCCCC[N+]2=C(/C=C/C=C/C=C3/c4ccc5ccccc5c4C(C)(C)N3C)C(C)(C)c3ccc4ccccc4c32)cc(-c2ccc(OC3OC(CO)C(O)C(O)C3O)c(C)c2)c1 [Example 22, N^3-(Cyanine5.5)-4′-(α-D-mannopyranosyl)-N^5,3′-dimethyl-[1,1′biphenyl]-3,5-dicarboxamide chloride] | 2
18 | CNC(=O)c1cc(C(=O)O)cc(-c2ccc(O[C@H]3O[C@H](CO)[C@@H](O)[C@H](O)[C@@H]3O)c(C)c2)c1 [Example 23, 4′-(α-D-mannopyranosyloxy)-3′-methyl-5-[(methylamino)carbonyl]-[1,1′biphenyl]-3-carboxylic acid] | 0.032
19 | Cc1cc(-c2cncc(C(=O)O)c2)ccc1O[C@H]1O[C@H](CO)[C@@H](O)[C@H](O)[C@@H]1O [Example 24, 5-[4′-(α-D-mannopyranosyloxy)-3′-methylphenyl]-3-pyridinecarboxylic acid] | 0.25
20 | Cc1cc(-c2cc3[nH]c(=O)[nH]c(=O)c3s2)ccc1O[C@H]1O[C@H](CO)[C@@H](O)[C@H](O)[C@@H]1O [Example 25, 6-[4′-(α-D-mannopyranosyloxy)-3′-methylphenyl]-thieno[3,2-d]pyrimidine-2,4(1H,3H)-dione] | 0.024
21 | Cc1cc(-c2ccc3ccn(C(C)C)c(=O)c3c2)ccc1O[C@H]1O[C@H](CO)[C@@H](O)[C@H](O)[C@@H]1O [Example 26, 2-isopropyl-7-[4′-(α-D-mannopyranosyloxy)-3′-methylphenyl]-1(2H)-isoquinolinone] | 0.043
22 | Cc1cc(-c2ccc3c(c2)C(=O)N(C(C)C)CC3)ccc1O[C@H]1O[C@H](CO)[C@@H](O)[C@H](O)[C@@H]1O [Example 27, 2-isopropyl-3,4-Dihydro-7-[4′-(α-D-mannopyranosyloxy)-3′-methylphenyl]-1(2H)-isoquinolinone] | 0.032
23 | Cc1cc(-n2cc(-c3ccccc3N)nn2)ccc1O[C@H]1O[C@H](CO)[C@@H](O)[C@H](O)[C@@H]1O [Example 28, 2-methyl-4-[4-(2-aminophenyl)-1H-1,2,3-triazol-1-yl]phenyl α-D-mannopyranoside] | 0.15
24 | Cc1cc(Oc2ccccc2[N+](=O)[O-])c([N+](=O)[O-])cc1O[C@H]1O[C@H](CO)[C@@H](O)[C@H](O)[C@@H]1O [Example 29, 2-[4-(α-D-mannopyranosyloxy)-5-methyl-2-nitrophenoxy]nitrobenzene] | 1
25 | CC(=O)Nc1ccccc1Oc1cc(C)c(O[C@H]2O[C@H](CO)[C@@H](O)[C@H](O)[C@@H]2O)cc1[N+](=O)[O-] [Example 30, N-(2-[4-(α-D-mannopyranosyloxy)-5-methyl-2-nitrophenoxy]phenyl)acetamide] | 1.5

Reference: patent US10738070B2, “Mannose-derived antagonists of FimH useful for treating disease” (Fimbrion Therapeutics, Inc., priority 2016, dated 2020)
